Consider 13 compounds from patent US8580794B2 (AbbVie Inc., priority 2009, dated 2013).

Where two headings read alike, the source gives them in different places.

This assay concerns the target GST-Bc1-2 (Homo sapiens, UniProt P10415). As to the kind of experiment: Time Resolved-Fluorescence Resonance Energy Transfer (TR-FRET) Bcl-2 binding assay with F-Bak peptide probe. Background: TR-FRET usually uses a lanthanide donor and a delayed reading to cut background.
[1] abbreviates: GST-Bcl-2 1 nM, F-Bak probe 100 nM, Tb-anti-GST 1 nM, '<' = below limit of detection, read-out: TR-FRET Bcl-2 Binding Ki.
Setting [2] is: Table 5, direct comparison Z=N vs Z=C analogs, read-out: Bcl-2 FRET ki.

GST-Bc1-2, sequence (P10415 whole entry): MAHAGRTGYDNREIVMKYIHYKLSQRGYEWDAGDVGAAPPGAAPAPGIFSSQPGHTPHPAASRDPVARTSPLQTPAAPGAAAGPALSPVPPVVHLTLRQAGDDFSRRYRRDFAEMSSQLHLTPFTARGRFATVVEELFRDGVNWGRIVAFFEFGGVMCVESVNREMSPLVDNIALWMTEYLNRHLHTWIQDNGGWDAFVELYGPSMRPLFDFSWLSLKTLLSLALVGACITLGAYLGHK

Broadly, the Ki is a measure of affinity in units of concentration, obtained from inhibition or displacement. `CC1(C)CCC(CN2CCN(c3ccc(C(=O)NS(=O)(=O)c4ccc(NC5CCN([C@H]6CCOC[C@H]6F)CC5)c([N+](=O)[O-])c4)c(Oc4cnc5[nH]ccc5c4)c3)CC2)=C(c2ccc(Cl)cc2)C1` (relative stereo) [Example 115, 4-(4-{[2-(4-chlorophenyl)-4,4-dimethylcyclohex-1-en-1-yl]methyl}piperazin-1-yl)-N-{[4-({1-[cis-3-fluorotetrahydro-2H-pyran-4-yl]piperidin-4-yl}amino)-3-nitrophenyl]sulfonyl}-2-(1H-pyrrolo[2,3-b]pyridin-5-yloxy)benzamide]: the Ki under setting [1] was under 0.01 nM.

For `CC1(C)CCC(CN2CCN(c3ccc(C(=O)NS(=O)(=O)c4ccc(OC[C@@H]5CN(C6COC6)C[C@H]5CF)c([N+](=O)[O-])c4)c(Oc4cnc5[nH]ccc5c4)c3)CC2)=C(c2ccc(Cl)cc2)C1` (relative stereo) [Example 137, 4-(4-{[2-(4-chlorophenyl)-4,4-dimethylcyclohex-1-en-1-yl]methyl}piperazin-1-yl)-N-[(4-{[trans-4-(fluoromethyl)-1-oxetan-3-ylpyrrolidin-3-yl]methoxy}-3-nitrophenyl)sulfonyl]-2-(1H-pyrrolo[2,3-b]pyridin-5-yloxy)benzamide], the Ki under setting [1] was under 0.01 nM.

As for `O=C(NS(=O)(=O)c1ccc(NCC2CCOCC2)c([N+](=O)[O-])c1)c1ccc(N2CCN(Cc3ccccc3-c3ccc(Cl)cc3)CC2)cc1Oc1cnc2[nH]ccc2c1` [Example 1, 4-{4-[(4′-chloro-1,1′-biphenyl-2-yl)methyl]piperazin-1-yl}-N-({3-nitro-4-[(tetrahydro-2H-pyran-4-ylmethyl)amino]phenyl}sulfonyl)-2-(1H-pyrrolo[2,3-b]pyridin-5-yloxy)benzamide], the Ki amounted to 0.225 nM under setting [1] and 0.225 nM under setting [2].

Regarding `O=C(NS(=O)(=O)c1ccc(NCCCN2CCOCC2)c([N+](=O)[O-])c1)c1ccc(N2CCN(Cc3ccccc3-c3ccc(Cl)cc3)CC2)cc1Oc1cnc2[nH]ccc2c1` [Example 2, 4-{4-[(4′-chloro-1,1′-biphenyl-2-yl)methyl]piperazin-1-yl}-N-({4-[(3-morpholin-4-ylpropyl)amino]-3-nitrophenyl}sulfonyl)-2-(1H-pyrrolo[2,3-b]pyridin-5-yloxy)benzamide], the Ki is, setting by setting: under setting [1], under 0.01 nM; under setting [2], under 0.01 nM.

For the compound `CC1(C)CCC(CN2CCN(c3ccc(C(=O)NS(=O)(=O)c4ccc(NC5CCN(C6CCOCC6)CC5)c([N+](=O)[O-])c4)c(Oc4cnc5[nH]ccc5c4)c3)CC2)=C(c2ccc(Cl)cc2)C1` [Example 3, 4-(4-{[2-(4-chlorophenyl)-4,4-dimethylcyclohex-1-en-1-yl]methyl}piperazin-1-yl)-N-({3-nitro-4-[(1-tetrahydro-2H-pyran-4-ylpiperidin-4-yl)amino]phenyl}sulfonyl)-2-(1H-pyrrolo[2,3-b]pyridin-5-yloxy)benzamide], the inhibitory constant (Ki) under setting [1] was found to be 0.013 nM and the Ki under setting [2] was 0.013 nM.

As for `CN1CCC(Nc2ccc(S(=O)(=O)NC(=O)c3ccc(N4CCN(CC5=C(c6ccc(Cl)cc6)CC(C)(C)CC5)CC4)cc3Oc3cccc4[nH]c5ccccc5c34)cc2[N+](=O)[O-])CC1` [Example 7, 2-(9H-carbazol-4-yloxy)-4-(4-{[2-(4-chlorophenyl)-4,4-dimethylcyclohex-1-en-1-yl]methyl}piperazin-1-yl)-N-({4-[(1-methylpiperidin-4-yl)amino]-3-nitrophenyl}sulfonyl)benzamide], under setting [1], the Ki was determined as 4.92 nM.

As for `CC1(C)CCC(CN2CCN(c3ccc(C(=O)NS(=O)(=O)c4ccc(NCCCN5CCCC5)c([N+](=O)[O-])c4)c(Oc4cccc5[nH]c6ccccc6c45)c3)CC2)=C(c2ccc(Cl)cc2)C1` [Example 8, 2-(9H-carbazol-4-yloxy)-4-(4-{[2-(4-chlorophenyl)-4,4-dimethylcyclohex-1-en-1-yl]methyl}piperazin-1-yl)-N-({3-nitro-4-[(3-pyrrolidin-1-ylpropyl)amino]phenyl}sulfonyl)benzamide], the Ki under setting [1] was 0.153 nM.

As for `CC1(C)CCC(CN2CCN(c3ccc(C(=O)NS(=O)(=O)c4ccc(NC[C@@H]5CCCOC5)c([N+](=O)[O-])c4)c(Oc4cnc5[nH]ccc5c4)c3)CC2)=C(c2ccc(Cl)cc2)C1` [Example 11, 4-(4-{[2-(4-chlorophenyl)-4,4-dimethylcyclohex-1-en-1-yl]methyl}piperazin-1-yl)-N-[(3-nitro-4-{[(3S)-tetrahydro-2H-pyran-3-ylmethyl]amino}phenyl)sulfonyl]-2-(1H-pyrrolo[2,3-b]pyridin-5-yloxy)benzamide], the Ki under setting [1] is 0.016 nM and the Ki under setting [2] turned out to be 0.016 nM.

On to `CC1(C)CCC(CN2CCN(c3ccc(C(=O)NS(=O)(=O)c4ccc5ccccc5c4)c(Oc4cnc5[nH]ccc5c4)c3)CC2)=C(c2ccc(Cl)cc2)C1` [Example 14, 4-(4-{[2-(4-chlorophenyl)-4,4-dimethylcyclohex-1-en-1-yl]methyl}piperazin-1-yl)-N-(2-naphthylsulfonyl)-2-(1H-pyrrolo[2,3-b]pyridin-5-yloxy)benzamide], for which, under setting [1], the Ki amounted to 2.8 nM.

Turning to `COCCNc1ccc(S(=O)(=O)NC(=O)c2ccc(N3CCN(CC4=C(c5ccc(Cl)cc5)CC(C)(C)CC4)CC3)cc2Oc2cnc3[nH]ccc3c2)cc1S(=O)(=O)C(F)(F)F` [Example 16, 4-(4-{[2-(4-chlorophenyl)-4,4-dimethylcyclohex-1-en-1-yl]methyl}piperazin-1-yl)-N-({4-[(2-methoxyethyl)amino]-3-[(trifluoromethyl)sulfonyl]phenyl}sulfonyl)-2-(1H-pyrrolo[2,3-b]pyridin-5-yloxy)benzamide], the Ki amounted to 0.219 nM under setting [1] and 0.219 nM under setting [2].

Consider `CC1(C)CCC(CN2CCN(c3ccc(C(=O)NS(=O)(=O)c4ccc(NCC5CCOCC5)c(S(=O)(=O)C(F)(F)F)c4)c(Oc4cnc5[nH]ccc5c4)c3)CC2)=C(c2ccc(Cl)cc2)C1` [Example 17, 4-(4-{[2-(4-chlorophenyl)-4,4-dimethylcyclohex-1-en-1-yl]methyl}piperazin-1-yl)-2-(1H-pyrrolo[2,3-b]pyridin-5-yloxy)-N-({4-[(tetrahydro-2H-pyran-4-ylmethyl)amino]-3-[(trifluoromethyl)sulfonyl]phenyl}sulfonyl)benzamide], for which the Ki by setting is: under setting [1], 0.09 nM; under setting [2], 0.09 nM.

Consider `CC1(C)CCC(CN2CCN(c3ccc(C(=O)NS(=O)(=O)c4ccc(NCC5CCOCC5)c([N+](=O)[O-])c4)c(Oc4ccc5[nH]ccc5c4)c3)CC2)=C(c2ccc(Cl)cc2)C1` [Example 18, 4-(4-{[2-(4-chlorophenyl)-4,4-dimethylcyclohex-1-en-1-yl]methyl}piperazin-1-yl)-2-(1H-indol-5-yloxy)-N-({3-nitro-4-[(tetrahydro-2H-pyran-4-ylmethyl)amino]phenyl}sulfonyl)benzamide], for which the Ki runs as follows: under setting [1], 0.017 nM; under setting [2], 0.017 nM.

As to `CC1(C)CCC(CN2CCN(c3ccc(C(=O)NS(=O)(=O)c4ccc(N[C@H]5CC[C@H](N6CCOCC6)CC5)c([N+](=O)[O-])c4)c(Oc4ccc5[nH]ccc5c4)c3)CC2)=C(c2ccc(Cl)cc2)C1` [Example 19, Trans-4-(4-{[2-(4-chlorophenyl)-4,4-dimethylcyclohex-1-en-1-yl]methyl}piperazin-1-yl)-2-(1H-indol-5-yloxy)-N-({4-[(4-morpholin-4-ylcyclohexyl)amino]-3-nitrophenyl}sulfonyl)benzamide], the Ki under setting [1] was determined as 0.226 nM; the Ki (Table 4, selected compounds of Ser. No. 12/631,404, read-out: Bcl-2 FRET Ki) stood at 0.226 nM; the Ki under setting [2] is 0.226 nM.
